# Tested on: SF188 cells
# Assay: Viability of glutamine-starved SF188 cells in hypoxia (trypan blue dye exclusion)
# Format: cell-based, human
# Conditions: 0.5% O2, glutamine-deficient medium supplemented with 7 mM dimethyl α-ketoglutarate, 48 h
# Protocol: In FIG. 2(A), SF188 cells were cultured for 24 h in complete medium equilibrated with either 21% O2 (Normoxia) or 0.5% O2 (Hypoxia). Culture medium was then removed from cells and analyzed for glutamine levels which were compared to the glutamine levels in fresh medium. Data are the mean±SEM of 3 independent experiments. […] Cells were cultured in complete medium equilibrated with 0.5% O2 for 24 h, followed by an additional 48 h at 0.5% O2 in either complete medium (+Gln), glutamine-deficient medium (−Gln), or glutamine-deficient medium supplemented with 7 mM dimethyl α-ketoglutarate (−Gln+αKG). All medium was pre-conditioned in 0.5% O2. Cell viability was determined by trypan blue dye exclusion. Data are the mean and range from 2 independent experiments. FIG. 2(C) depicts a model of the pathways for cit+4 and cit+5 production from [U-^13C]glutamine (glutamine+5). […] Cells were cultured for 24 h as in (A), followed by 4 h of culture in glutamine-deficient medium supplemented with 4 mM [U-^13C]glutamine. ^13C enrichment in cellular citrate was quantitated with GC-MS. […]
# SF188 and RCC4 cells were cultured in Dulbecco's Modified Eagle's Medium (DMEM; Invitrogen 11965), 10% fetal bovine serum (FBS; Gemini Biosystems), 100 units/ml Penicillin, 100 ug/ml Streptomycin, 25 mM glucose, and 6 mM L-glutamine. […] Viability was determined by trypan blue exclusion. […]
compound,measurement,value
COC(=O)CCC(=O)C(=O)OC [dimethyl α-ketoglutarate],cell viability upon glutamine withdrawal,rescued the defect in cell viability

# — patent publication US11262362B2, “2-hydroxyglutarate as a biomarker for chronic hypoxia” (MEMORIAL SLOAN KETTERING CANCER CENTER, priority 2011, dated 2022)
